Measured values: publication PMC3763632, “Radiosynthesis and Radiotracer Properties of a 7-(2-[^18F]Fluoroethoxy)-6-methoxypyrrolidinylquinazoline for Imaging of Phosphodiesterase 10A with PET” (Pharmaceuticals, 2012)
“And” between values parts separate entries of the source, which are not always exact repeats. Equal values may be shown once. Read-outs that look alike come from different tables or passages of the source.

Legend:
[1] = log D7.0 by RP-HPLC retention; assay type: physicochemical; conditions: MeCN/NH4OAc, pH 7.0, read-out: Log D
From the text: To clarify these findings, we determined the ligand distribution coefficients for [^18/19F]IV experimentally, under physiological pH conditions in solid-liquid phase systems via retention on RP-HPLC, and in liquid-liquid phase systems by conventional shake-flask method. […] All in one, an experimental log D7.0–7.4 value of ~2.7 promised a good potential for brain uptake of [^18F]IV in vivo, attended by low unspecific binding.
Referring to an OECD guideline and using a series of reference compounds (nitrobenzene, p-nitrophenol, benzene, toluene, chlorobenzene, benzophenone, naphthalene, 1,4-dibromobenzene, biphenyl, diphenylether, 1,4-diiodobenzene) with known log POW values comprised between 1.89 and 4.64, retention times were determined on two reversed phase columns (Multospher 120 RP-18 AQ, 250 mm × 4.6 mm, 5 μm, CS-Chromatographie Service GmbH, Langerwehe, Germany; SupelcosilTM ABZ + Plus, 250 × 4 mm, 5 μm, Supelco, Bellefonte, PA, USA). […] Dead times t0 were determined by retention of thiourea. Corresponding capacity factors k for all compounds were calculated and plotted as log k versus log P of the standard compounds, affording calibration curves (Microcal^TM Origin 6.0, Microcal Software, Inc., Northhampton, MA, USA). […]

[2] = molecular target: T1, PDE10A (Homo sapiens, UniProt Q9Y233); experiment: Homologous competitive binding on membrane homogenates of PDE10A-transfected SF21 cells; conditions: read-out: IC50 (homologous competition vs [18F]IV)
T1 construct: purchased Biocrea GmbH, Radebeul, Germany; host or cells: SF21 insect cells (PDE10A-transfected; baculovirus system is mentioned)
Procedure: The dissociation constant KD of [^18F]IV was determined in homologous competitive binding experiments by nonlinear regression analysis. Cell membrane homogenates from PDE10A-transfected SF21 cells (100 µg protein/mL incubation volume) were incubated with solutions of six concentrations of IV (working concentration 10 pM–[…]), each spiked with a fixed concentration of [^18F]IV (working concentration 0.05–0.1 nM).
Crude membrane homogenates isolated from PDE10A-transfected SF21 cells were obtained from Biocrea GmbH, Radebeul, Germany. For competitive radioligand displacement experiments (n = 2), the membrane preparations were diluted with incubation buffer (50 mM Tris-HCl, pH 7.4 at room temperature, 5 mM MgCl2) and re-homogenized by passing through a 27-gauge needle. The protein (100 µg) was incubated with 0.05–0.1 nM of [^18F]IV and different concentrations of IV (10 pM–1 µM), diluted from a 10 mM stock in DMSO, at a final volume of 1 mL. Nonspecific binding was determined in the presence of 10 µM of I, and control incubation was carried out accordingly using crude membrane preparations obtained from non-transfected SF21 cells.
Incubation at room temperature was terminated after 120 min by rapid filtration (Brandel 48-channel harvester; Biomedical Research and Development Lab. Inc., Gaithersburg, MD, USA) on Whatman GF/B glass-fiber filters, pre-soaked for 90 min in 0.3% polyethylenimine (Sigma, Deisenhofen, Germany), followed by washing four times with 4 mL of ice-cold wash buffer (50 mM Tris-HCl, pH 7.4 at 4 °C). Filter-bound radioactivity was quantified using a calibrated γ-counter (Wallac WIZARD, Perkin Elmer, Waltham, MA, USA).
Each experiment was carried out in triplicate. The binding parameter IC50 was estimated using iterative non-linear curve fitting. KD of [^18F]IV was estimated directly from homologous competition curve with KD = IC50-[radioligand] as well as from the respective saturation isotherm by nonlinear regression analysis.

[3] = molecular target: T1, PDE10A; parameters: method as in earlier work; conditions: cited from earlier work
[4] = system: PDE3A; parameters: method as in earlier work; conditions: cited from earlier work
[5] = system: PDE4A; parameters: method as in earlier work; conditions: cited from earlier work
[6] = system: PDE 1B; parameters: method as in earlier work; conditions: cited from earlier work
[7] = system: PDE 2A; parameters: method as in earlier work; conditions: cited from earlier work
[8] = system: PDE 5A; parameters: method as in earlier work; conditions: cited from earlier work
[9] = system: PDE 6; parameters: method as in earlier work; conditions: cited from earlier work
[10] = system: PDE 7B; parameters: method as in earlier work; conditions: cited from earlier work
[11] = system: PDE 8A; parameters: method as in earlier work; conditions: cited from earlier work
[12] = system: PDE 9A; parameters: method as in earlier work; conditions: cited from earlier work
[13] = system: PDE 11A; parameters: method as in earlier work; conditions: cited from earlier work
[14] = molecular target: T1, PDE10A; conditions: cited from earlier work

T1 sequence (Q9Y233 whole entry, species assumed): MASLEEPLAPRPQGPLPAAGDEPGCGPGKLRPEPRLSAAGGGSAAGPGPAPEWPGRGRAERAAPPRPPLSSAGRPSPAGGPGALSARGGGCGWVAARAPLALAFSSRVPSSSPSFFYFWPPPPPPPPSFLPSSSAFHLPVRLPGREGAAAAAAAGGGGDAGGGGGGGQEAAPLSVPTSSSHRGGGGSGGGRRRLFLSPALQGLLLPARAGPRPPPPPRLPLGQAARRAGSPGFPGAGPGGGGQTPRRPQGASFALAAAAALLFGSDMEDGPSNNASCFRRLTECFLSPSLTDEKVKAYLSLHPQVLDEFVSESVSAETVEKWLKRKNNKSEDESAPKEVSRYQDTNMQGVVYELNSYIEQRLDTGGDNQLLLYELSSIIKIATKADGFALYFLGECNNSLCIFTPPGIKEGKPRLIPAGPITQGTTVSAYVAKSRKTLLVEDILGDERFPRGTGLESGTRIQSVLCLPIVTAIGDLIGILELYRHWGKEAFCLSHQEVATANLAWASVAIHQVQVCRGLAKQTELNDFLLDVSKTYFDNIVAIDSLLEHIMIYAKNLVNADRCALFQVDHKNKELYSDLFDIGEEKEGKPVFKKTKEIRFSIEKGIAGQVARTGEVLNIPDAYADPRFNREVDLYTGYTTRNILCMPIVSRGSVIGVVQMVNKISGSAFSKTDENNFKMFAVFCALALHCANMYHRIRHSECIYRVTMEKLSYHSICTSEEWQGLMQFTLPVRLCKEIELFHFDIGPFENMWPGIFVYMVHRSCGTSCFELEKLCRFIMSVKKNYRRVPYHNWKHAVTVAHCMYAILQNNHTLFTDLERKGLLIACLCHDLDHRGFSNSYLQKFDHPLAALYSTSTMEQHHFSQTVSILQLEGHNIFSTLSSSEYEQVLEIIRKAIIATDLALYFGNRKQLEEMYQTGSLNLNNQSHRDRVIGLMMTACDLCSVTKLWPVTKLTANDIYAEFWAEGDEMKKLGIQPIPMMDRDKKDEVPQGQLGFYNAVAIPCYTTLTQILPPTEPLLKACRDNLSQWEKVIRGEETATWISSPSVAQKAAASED

SMILES	chromatographic logD ([1]; Multospher 120 RP-18 AQ column, Multospher)	chromatographic logD ([1]; Supelcosil ABZ+Plus column, Supelcosil)	IC50 ([2]; mean, n = 2, 0.05–0.1 nM [18F]IV) [nM]	IC50 ([2]; single experiments (n = 2))	IC50 ([3]; PDE10A) [nM]	Ki ([3]; data to be published in detail elsewhere) [nM]	IC50 [4] [nM]	IC50 [5] [nM]	IC50 [6] [nM]	IC50 [7] [nM]	IC50 [8] [nM]	IC50 [9] [nM]	IC50 [10] [nM]	IC50 [11] [nM]	IC50 [12] [nM]	IC50 [13] [nM]	IC50 [14] [nM]	pIC50,PDE10A [14]
COc1cc2c(N3CC[C@@H](Oc4cnc5ccccc5n4)C3)ncnc2cc1OCCF [IV, (R)-7-(2-fluoroethoxy)-6-methoxy-4-(3-(quinoxalin-2-yloxy)pyrrolidin-1-yl)quinazoline]	2.63	2.63	39.3	38.3 nM and 40.4 nM	105	53	88.7	562	> 1000	> 1000	> 1000	> 1000	> 1000	> 1000	> 1000	> 1000		
FCCn1cc(-c2ccncc2)c(-c2ccc(OCc3ccc4ccccc4n3)cc2)n1 [JNJ41510417]																	0.5	9.3
Cc1cnc(COc2ccc(-c3nn(CCF)cc3-c3ccncc3)cc2)c(C)c1 [JNJ42259152]																		8.8
